Experiments:
Assay in all cases: In vitro combination study with tazemetostat, cell proliferation (Cell Titer Glo)
[1] = test system: Calu-6; details: 7 days tazemetostat pre-treatment, 6 days co-treatment with second agent
[2] = test system: NCI-H522; details: 7 days tazemetostat pre-treatment, 6 days co-treatment with second agent
[3] = test system: A549; details: 7 days tazemetostat pre-treatment, 6 days co-treatment with second agent
[4] = test system: NCI-H1703; details: 7 days tazemetostat pre-treatment, 6 days co-treatment with second agent
[5] = test system: NCI-H1993; details: 7 days tazemetostat pre-treatment, 6 days co-treatment with second agent
[6] = test system: Calu-3; details: 7 days tazemetostat pre-treatment, 6 days co-treatment with second agent
[7] = test system: NCI-H23; details: 7 days tazemetostat pre-treatment, 6 days co-treatment with second agent
Experimental: (§1) Initial proliferation studies were performed to determine the IC50 of tazemetostat in each cell line. For the screen, tazemetostat was used at concentrations bracketed around the IC50 value. If 50% inhibitory concentration was not reached then tazemetostat was tested starting at 10 μM.
(§2) In order to study the effect of dual combination of tazemetostat and a second agent on cell proliferation, cells in log-linear phase growth rate were pre-treated with various concentrations of tazemetostat or DMSO for 7 days in flasks, plated in 384-well plates in the absence of compounds and co-treated on day 8 with tazemetostat or DMSO and the second agent serially diluted for additional 6 days (as depicted in FIG. 1). On day 15, plates were developed for endpoint analysis using Cell Titer Glo to measure ATP content, which was used as an indicator of cell viability. DMSO concentration was kept constant throughout the assay at 0.15% v/v.
(§3) All cell lines were obtained from American Type Culture Collection (ATCC; Rockville, Md.). […] A427, Calu-3, Calu-6 cell lines were cultured in EMEM+10% Fetal bovine serum (FBS)+1% v/v Penicillin/Streptomycin (P/S).

[8] = test system: NCI-H1573; details: 7 days tazemetostat pre-treatment, 6 days co-treatment with second agent
Experimental: as §1, §2
(§4) NCI-H1573 was cultured in DMEM: F12 Medium containing the following components: 0.02 mg/ml insulin, 0.01 mg/ml transferrin, 25 nM sodium selenite, 50 nM Hydrocortisone, 1 ng/ml Epidermal Growth Factor, 0.01 mM ethanolamine, 0.01 mM phosphorylethanolamine, 100 pM triiodothyronine, 0.5% (w/v) bovine serum albumin, 0.5 mM sodium pyruvate, 4.5 mM L-glutamine and 1% v/v Pen/Strep.

[9] = test system: NCI-H2110; details: 7 days tazemetostat pre-treatment, 6 days co-treatment with second agent
Experimental: as §1, §2

[10] = test system: NCI-H1793; details: 7 days tazemetostat pre-treatment, 6 days co-treatment with second agent
Experimental: as §1, §2, §4

[11] = test system: NCI-H838; details: 7 days tazemetostat pre-treatment, 6 days co-treatment with second agent
Experimental: as §1, §2, §4

[12] = test system: NCI-H2030; details: 7 days tazemetostat pre-treatment, 6 days co-treatment with second agent
[13] = test system: NCI-H460; details: 7 days tazemetostat pre-treatment, 6 days co-treatment with second agent
Experimental: as §1, §2, §3

[14] = test system: NCI-H1299; details: 7 days tazemetostat pre-treatment, 6 days co-treatment with second agent
[15] = test system: A427; details: A427; 7 days tazemetostat pre-treatment, 6 days co-treatment with second agent
Experimental: as §1, §2, §3

[16] = test system: NCI-H2122; details: 7 days tazemetostat pre-treatment, 6 days co-treatment with second agent
Experimental: as §1, §2, §3

[17] = test system: NCI-H661; details: 7 days tazemetostat pre-treatment, 6 days co-treatment with second agent
Experimental: as §1, §2, §3

| Compound | combinatorial effect with tazemetostat (Loewe volume class) [1] | combinatorial effect with tazemetostat (Loewe volume class) [2] | combinatorial effect with tazemetostat (Loewe volume class) [3] | combinatorial effect with tazemetostat (Loewe volume class) [4] | combinatorial effect with tazemetostat (Loewe volume class) [5] | combinatorial effect with tazemetostat (Loewe volume class) [6] | combinatorial effect with tazemetostat (Loewe volume class) [7] | combinatorial effect with tazemetostat (Loewe volume class) [8] | combinatorial effect with tazemetostat (Loewe volume class) [9] | combinatorial effect with tazemetostat (Loewe volume class) [10] | combinatorial effect with tazemetostat (Loewe volume class) [11] | combinatorial effect with tazemetostat (Loewe volume class) [12] | combinatorial effect with tazemetostat (Loewe volume class) [13] | combinatorial effect with tazemetostat (Loewe volume class) [14] | combinatorial effect with tazemetostat (Loewe volume class) [15] | combinatorial effect with tazemetostat (Loewe volume class) [16] | combinatorial effect with tazemetostat (Loewe volume class) [17] |
| --- | --- | --- | --- | --- | --- | --- | --- | --- | --- | --- | --- | --- | --- | --- | --- | --- | --- |
| CN(C)C/C=C/C(=O)Nc1cc2c(Nc3ccc(F)c(Cl)c3)ncnc2cc1O[C@H]1CCOC1 [Afatinib, afatinib] | Add. (A value between −1 and 1 denoted “additivity”) | Syn. (Loewe volumes greater than 1 denoted “synergy”) | Anta. (volumes <−1 denoted “antagonism”) | Add. (A value between −1 and 1 denoted “additivity”) | Add. (A value between −1 and 1 denoted “additivity”) | Syn. (Loewe volumes greater than 1 denoted “synergy”) | Add. (A value between −1 and 1 denoted “additivity”) | Add. (A value between −1 and 1 denoted “additivity”) | Syn. (Loewe volumes greater than 1 denoted “synergy”) | Syn. (Loewe volumes greater than 1 denoted “synergy”) | Syn. (Loewe volumes greater than 1 denoted “synergy”) | Add. (A value between −1 and 1 denoted “additivity”) | Add. (A value between −1 and 1 denoted “additivity”) | Add. (A value between −1 and 1 denoted “additivity”) | Syn. (Loewe volumes greater than 1 denoted “synergy”) | Add. (A value between −1 and 1 denoted “additivity”) | Add. (A value between −1 and 1 denoted “additivity”) |
| COc1cc(N2CCC(N3CCN(C)CC3)CC2)ccc1Nc1ncc(Cl)c(Nc2ccccc2P(C)(C)=O)n1 [Brigatinib, brigatinib] | Add. (A value between −1 and 1 denoted “additivity”) | Syn. (Loewe volumes greater than 1 denoted “synergy”) | Syn. (Loewe volumes greater than 1 denoted “synergy”) | Syn. (Loewe volumes greater than 1 denoted “synergy”) | Syn. (Loewe volumes greater than 1 denoted “synergy”) | Syn. (Loewe volumes greater than 1 denoted “synergy”) | Syn. (Loewe volumes greater than 1 denoted “synergy”) | Syn. (Loewe volumes greater than 1 denoted “synergy”) | Syn. (Loewe volumes greater than 1 denoted “synergy”) | Syn. (Loewe volumes greater than 1 denoted “synergy”) | Syn. (Loewe volumes greater than 1 denoted “synergy”) | Syn. (Loewe volumes greater than 1 denoted “synergy”) | Syn. (Loewe volumes greater than 1 denoted “synergy”) | Add. (A value between −1 and 1 denoted “additivity”) | Syn. (Loewe volumes greater than 1 denoted “synergy”) | Add. (A value between −1 and 1 denoted “additivity”) | Add. (A value between −1 and 1 denoted “additivity”) |
